Experimental data as given in patent US20250108066A1, “TRINUCLEOTIDE CAP ANALOGS AND METHODS OF USE THEREOF” (TriLink BioTechnologies, LLC, priority 2022, published 2025).

System: CD-1 mice
Assay: In vivo luciferase expression in mice injected with LNP:mRNA (Fluc mRNA capped with cap analog), whole-body bioluminescence imaging
Conditions: female CD-1 mice, LNP:mRNA 1 mg/kg single tail-vein bolus; for in vivo luciferase expression as compared to m7GpppA2′OMepG (Control): integrated flux from 3-48 hours, FIG. 2; for in vivo luciferase expression (translation) as compared to the same compound lacking the 3′OMe group on the m7G: pairwise comparison 3′OMe vs 3′OH on m7G, FIG. 4 / FIG. 2
Protocol: Female CD-1 mice of 8-9 weeks old were randomized into groups of five animals based on body weight at the beginning of the study (Charles River Laboratories, Discovery Research Services North Carolina). Lipid nanoparticle formulations including mRNA (capped using a cap analog recited in Table 1, N1-methylpseudouridine-5′-Triphosphate (N1-me-PsU) modified firefly luciferase (Fluc) mRNA) (LNP:mRNA) test articles were diluted in PBS to achieve 1 mg/kg delivery in a single bolus by tail-vein injection. The body weight of each mouse was measured once a day for the duration of the study and two blood draws were taken for serum analysis by Mouse Cytokine/Chemokine 26-Plex ProcartaPlex Panel 1 by Luminex platform (Thermo Fisher Scientific; Waltham, MA). Luciferase activity was measured by whole-body bioluminescence imaging on IVIS Spectrum CT system by Perkin Elmer (Greenville, SC) at six time points post mRNA injection (3 hours, 6 hours, 9 hours, 12 hours, 24 hours, and 48 hours hours post-injection). D-luciferin was delivered by intraperitoneal injection 10 minutes prior to each imaging session (150 mg/kg total). The measured luciferase expression results are shown in FIG. 2, showing the integrated flux from 3-48 hours. […] Luminescence intensity scale is on the left.

| Structure (SMILES) | in vivo luciferase expression as compared to m7GpppA2′OMepG (Control) | in vivo luciferase expression (translation) as compared to the same compound lacking the 3′OMe group on the m7G |
| --- | --- | --- |
| C[n+]1cn([C@@H]2O[C@H](COP(=O)(O)OP(=O)([O-])OP(=O)(O)OC[C@]34COC(C3OP(=O)(O)OC[C@H]3O[C@@H](n5cnc6c(=O)[nH]c(N)nc65)C(O)C3O)[C@H](n3cnc5c(N)ncnc53)O4)C(O)C2O)c2nc(N)[nH]c(=O)c21 (stereo in doubt) [Compound 1, ^m7GpppA2′,4′-LNApG] | increased in vivo luciferase expression |  |
| COC1C(OP(=O)(O)OC[C@H]2O[C@@H](n3cnc4c(=O)[nH]c(N)nc43)C(O)C2O)[C@@H](COP(=O)(O)OP(=O)([O-])OP(=O)(O)OC[C@H]2O[C@@H](n3c[n+](C)c4c(=O)[nH]c(N)nc43)C(O)C2OC)O[C@H]1n1cnc2c(N)ncnc21 (stereo partly drawn) [Compound 29, ^m7G3′OmepppA2′OMepG] | increased in vivo luciferase expression | increased luciferase expression in vivo |
| COC1C(OP(=O)(O)OC[C@H]2O[C@@H](n3cnc4c(=O)[nH]c(N)nc43)C(O)C2O)[C@@H](COP(=O)(O)OP(=O)([O-])OP(=O)(O)OC[C@]23COC(C2O)[C@H](n2c[n+](C)c4c(=O)[nH]c(N)nc42)O3)O[C@H]1n1cnc2c(N)ncnc21 (stereo partly drawn) [Compound 32, ^m7G2′4′LNApppA2′OMepG] | increased in vivo luciferase expression |  |
| CNc1ncnc2c1ncn2[C@@H]1O[C@H](COP(=O)(O)OP(=O)([O-])OP(=O)(O)OC[C@H]2O[C@@H](n3c[n+](C)c4c(=O)[nH]c(N)nc43)C(O)C2OC)C(OP(=O)(O)OC[C@H]2O[C@@H](n3cnc4c(=O)[nH]c(N)nc43)C(O)C2O)C1OC (stereo partly drawn) [Compound 30, ^m7G3′OMeppp^m6A2′OMepG] | increased in vivo luciferase expression | increased luciferase expression in vivo |
| COC1[C@@H](OP(=O)(O)OC[C@H]2O[C@@H](n3cnc4c(=O)[nH]c(N)nc43)C(O)[C@H]2O)[C@@H](/C=C/P(=O)(O)OP(=O)([O-])OP(=O)(O)OC[C@H]2O[C@@H](n3c[n+](C)c4c(=O)[nH]c(N)nc43)C(O)[C@H]2OC)O[C@H]1n1cnc2c(N)ncnc21 (stereo partly drawn) [Compound 5, ^m7G3′-OMepppA2′OMe-5′vinylpG] |  | increased luciferase expression in vivo |
| COC1C(O)[C@H](n2c[n+](C)c3c(=O)[nH]c(N)nc32)O[C@@H]1COP(=O)(O)OP(=O)([O-])OP(=O)(O)OC[C@]12COC(C1OP(=O)(O)OC[C@H]1O[C@@H](n3cnc4c(=O)[nH]c(N)nc43)C(O)C1O)[C@H](n1cnc3c(N)ncnc31)O2 (stereo in doubt) [Compound 2, ^m7G3′OMepppA2′,4′-LNApG] | increased in vivo luciferase expression | increased luciferase expression in vivo |
| COC1C(OP(=O)(O)OC[C@H]2O[C@@H](n3cnc4c(=O)[nH]c(N)nc43)C(O)C2O)[C@@H](COP(=O)(O)OP(=O)([O-])OP(=O)(O)OC[C@H]2O[C@@H](n3c[n+](C)c4c(=O)[nH]c(N)nc43)C(O)C2OC)O[C@H]1n1cnc2c(N)nc(N)nc21 (stereo in doubt) [Compound 8, ^m7G3′OMeppp(diaminopurine)2′OMepG] | increased in vivo luciferase expression | increased luciferase expression in vivo |
| COC1C(OP(=O)(O)OC[C@H]2O[C@@H](n3cnc4c(=O)[nH]c(N)nc43)C(O)C2O)[C@@H](COP(=O)(O)OP(=O)([O-])OP(=O)(O)OC[C@H]2O[C@@H](n3c[n+](C)c4c(=O)[nH]c(N)nc43)C(OC)C2OC)O[C@H]1n1cnc2c(N)ncnc21 (stereo in doubt) [Compound 25, ^m7G2′OMe3′OMepppA2′OMepG] |  | increased luciferase expression in vivo |
